Laboratory results taken from patent US11041013B2, “Methods of preparation and composition of peptide constructs useful for treatment of rheumatoid arthritis” (Cel-Sci Corporation, priority 2008, dated 2021).

Assays:
[1] = test system: collagen induced arthritis (CIA); test: CIA model, arthritis index (AI) score; assay type: in vivo, DBA/1J mice; details: for effectiveness in the murine CIA model of RA relative to SEQ ID NO. 99: studies 1-5 and FIGS. 1-4; for progression of disease, as indicated by AI scores: two treatments of 33 nmoles in ICFA adjuvant, Enbrel 3 mg/kG daily for the first 14 days
Protocol: The following five studies are of CEL-2000 therapeutic vaccine for collagen induced arthritis (CIA) where the first step was to identify a good animal model for testing the vaccine, which is the collagen induced arthritis (CIA) model in young (6-7) week old male DBA/1J mice. These mice received 2 injections of bovine collagen the first in complete Freund's adjuvant (CFA) on day 0 and then 3 weeks later on day 21, in Incomplete CFA. After the second collagen injection, the mice were evaluated daily for any joint swelling or redness. Each of the paws was scored on a 4 point scale (arthritis index Arthritis Index (AI)) with respect to the number of digits with symptoms and the thickness of the paw measured, at least 3-4 times a week. Each mouse was weighed weekly.
The first study is the CIA model CEL-2000 therapeutic vaccination conjugate specificity effect on AI scores (study 4.1 see FIG. 1 and legend). When significant disease is noted, usually about day 28, the mice are grouped (n=8) with a range of scores between 1 and 6 and group mean of 2.5 to 3. At this point the therapy begins according to protocol. Controls include groups with induced disease but no therapy and groups of healthy mice without induced disease. A therapy control of Enbrel (3 mg/kG daily) was included. In this study (FIG. 1), mice received two treatments of 33 nmoles (for CEL-2000 equivalent to 4.8 mg/kG) of CEL-2000, (the same dose as used for the L.E.A.P.S. HSV vaccines), or other conjugates of the same collagen peptide used in CEL-2000 using the same ICBLs as in the HSV or EAM systems for comparison using a GMP grade ICFA adjuvant.
AI scores are evaluations on a scale of 0=normal to 4=maximal effect of joint thickening, redness, immobilization of joints in a digit or total paw for each of the 4 paws in the CIA mouse model of rheumatoid arthritis.
Treatment started when group score was 3.5. This was done to have all groups starting with same score, as opposed to the range between […] seen in the first study. The same dose of Enbrel as was used in the first study but was given every other day for the entire study period of 28 days.

cytokines = test: Serum cytokines after immunization (Ray Biotech protein microarrays); assay type: in vivo, A/J mice; details: unmodified J ICBL emulsified in Seppic ISA51
Protocol: The outcome of the immune response to vaccines is likely at least in part determined by the cytokines elicited by the immunization. Cytokines elicited by immunization of A/J mice with either the J, JgD or JH peptides emulsified in Seppic ISA51 were evaluated from serum obtained on days 3, 10 and 24 after immunization using Ray Biotech protein microarrays. […] IL12 is produced by DCs and macrophages and promotes the development of Th1 responses which are characterized by production of IL2 and IFN-γ. […] L.E.A.P.S. conjugates ex vivo studies

[2] = test system: collagen induced arthritis (CIA); test: CIA model, histopathology of right rear feet; assay type: in vivo, DBA/1J mice; details: for disease pathology compared statistically with untreated CIA mice: Enbrel: 14 days after cessation of therapy, 3×CEL-2000: 3 weeks after immunization; for histopathology: bone resorption / histopathology: cartilage damage / histopathology: inflammation / histopathology: pannus: hind paw and ankle, Enbrel for 14 days, CEL-2000 100 nmol on days 0 and 7
Description: The fourth study is for the CIA model CEL-2000 therapeutic vaccination; histopathology (study 4.4 see FIG. 4 and legend). At the termination of the experiments the animals were euthanized, the right rear feet were collected and stored individually in buffered formalin to be fixed in preparation for paraffin embedding, sectioning, staining and analysis. The feet in buffered formalin were sent for processing, reading and plotting of the data (representative sections from mid group specimens were photographed).
The pathologists scored the feet for disease pathology in 4 areas: inflammation, pannus, cartilage and bone. FIG. 4 is a summary plot of the analysis performed cores of the 4 areas from the following groups: Control no disease; CIA disease: CIA Disease Enbrel daily for 14 days continued for 2 more weeks before termination: CEL-2000 and CEL-2001 groups (vaccinated on day 0 and 7) from study 1 (FIG. 1) and from study 2 (FIG. 2) 1× and 3×CEL-2000 vaccinated groups on day 0 and 7.

[3] = test system: vaccine peptides, collagen or citrulline or components used to make vaccines; details: mouse, in vivo
Protocol: The fifth study is for the CIA-model CEL-2000 vaccination serum antibodies (study 4.5). Antibody production to the vaccine peptides, collagen or citrulline or components used to make vaccines were evaluated in mouse sera from the previous two sets of studies. As expected, all sera recognized the bovine collagen molecule used to induce the disease. Neither the dose, amount of vaccine, nor timing of vaccination seemed to affect the titer or isotype. […] No antibodies were detected with reactivity to the citrulline using a citrulline fibrin peptide substrate in the ELISA. […] (data not shown) L.E.A.P.S. conjugates serum cytokine studies

Row | Substance | effectiveness in the murine CIA model of RA relative to SEQ ID NO. 99 [1] | progression of disease, as indicated by AI scores ([1]; study 4.1) | disease pathology compared statistically with untreated CIA mice [2] | histopathology: bone resorption [2] | histopathology: cartilage damage [2] | histopathology: inflammation [2] | histopathology: pannus [2] | also measured
1 | DGQEEKAGVVSTGLI-GGGGS-TGGKPGIAGFKGEQGPKGEP (DGQEEKAGVVSTGLIGGGGSTGGKPGIAGFKGEQGPKGEP; Completely synthesized peptide construct) [CEL-2001] | less effective |  |  |  |  |  |  | 
2 | DLLKNGERIEKVEGGG [J] |  |  |  |  |  |  |  | most remarkable change in cytokine levels upon immunization (cytokines): reduction in IL10 levels
3 | DLLKNGERIEKVEGGGTGGKPGIAGFKGEQGPKGEP (Completely synthesized peptide construct) [CEL-2000, peptide J combined with the human type II collagen peptide 254-273] |  | limited the progression of disease | statistically had less disease pathology | less bone resorption in fewer digit joints | minimal | mild | minimal | AI scores, reduction compared with other conjugates ([1]; study 4.1, 33 nmoles, versus CEL-2001 or CEL-2002): reduced to a greater extent than was seen with other conjugates; progression of disease over the experimental period ([1]; study 4.2, 100 nmol dose (3× treatment) on days 0 and 7): appeared to limit the progression of disease throughout the experimental period; progression of arthritis disease compared with Enbrel ([1]; study 4.2, 2 doses of 33 or 100 nmol subcutaneously on days 0 and 7 or 0 and 14, Enbrel every other day for 28 days): at least as good as those of mice treated with Enbrel; Joint thickening, redness, immobilization of joints in a digit or total paw ([1]; study 4.2, each of the 4 paws): reduced; progression of disease, as indicated by reduced AI scores ([1]; study 4.2, treatment started when group score was 3.5): limited the progression of disease; duration of effect versus Enbrel ([2]; 2 vaccinations at 100 nmol, 28 day period): more lasting effect than the multiple Enbrel treatments; protection by all 4 histopathology criteria (group ranking) ([2]; 3× (100 nmol) on days 0 and 7, FIG. 4): best protected group (least diseased) by all 4 criteria
4 | Enbrel [reference compound] |  | slightly more effective than the vaccine | not statistically different from untreated CIA mice | minimal | mild | mild | minimal | antibodies to Enbrel in sera [3]: antibodies could be detected
5 | TGGKPGIAGFKGEQGPKGEP ((254)..(273) Type II Collagen; listed as Homo sapiens) [CEL-2002] | less effective |  |  |  |  |  |  | 
